Values after ≈ are worked out from the molar mass of the structure shown.

The conditions of the data set: buffer; pH 7.4; 200.0 µM.
`O=C(Nc1ccc(F)c(F)c1)c1ccco1` returned a kinetic solubility of over 33.5 µg/mL.

As for `Cc1ccc(-c2nc(C#N)c(N3CCC(C)CC3)o2)cc1`, the solubility (kinetic) was under 0.2 µg/mL.

In turn, `CC(=O)c1cccc(NC(=S)NC(=O)c2ccccc2C)c1` displayed a kinetic solubility of 1 µg/mL (≈ 3.2 µM).

`CN(C)c1ccc(/C=C/C(=O)c2ccc(O)cc2)cc1[N+](=O)[O-]`: the kinetic solubility is 1.2 µg/mL (≈ 3.84 µM).

Take `CCc1ccc(OCC(=O)O/N=C(\N)c2ccncc2)cc1`: the kinetic solubility was 7.1 µg/mL (≈ 23.7 µM).

In turn, `O=C(CCCc1cccs1)Nc1ccc2c(c1)OCO2` gave a kinetic solubility of 39.2 µg/mL (≈ 135 µM).

As to `O=C1[C@H](O)[C@@H](O)C(=O)N1Cc1ccccc1`, the solubility (kinetic) was over 33.2 µg/mL.

In turn, `CCOc1ccc(C(=O)OC(C)CN2CCCCC2)cc1.Cl` (configuration not stated) returned a kinetic solubility of over 49.2 µg/mL.

Consider `Cc1ccc(C)c(N2CN(CCC3=CCCCC3)CNC2=S)c1`, for which the solubility (kinetic) turned out to be 38.7 µg/mL (≈ 117 µM).

The compound `O=C(O)c1nccnc1C(=O)Nc1ccccc1N1CCOCC1` registered a solubility (kinetic) of over 49.2 µg/mL.

Turning to `Cc1cc(C)c(C#N)c(Nc2cccc(C)c2C)n1`, the solubility (kinetic) is 1 µg/mL (≈ 3.98 µM).

The compound `COc1ccc(/C=C/C(=O)OC(C)CN2CCCCC2)cc1.Cl` (configuration not stated) displayed a kinetic solubility of 49.4 µg/mL.

Take `N#C/C(=C\c1ccccc1OCC(=O)O)c1nc2ccccc2[nH]1`: the kinetic solubility was over 47.9 µg/mL.

Compound `Cc1ccc(NC(=O)CN(C)C(=O)Cc2c[nH]c3ccccc23)cc1` came in with a kinetic solubility of over 50.3 µg/mL.

On to `O=C(c1ccccc1)c1nccn1-c1ccc(Cl)nn1`, for which the kinetic solubility is over 42.7 µg/mL.

With `O=C(NCC1CCCO1)c1ccc(NC(=O)c2cc(F)c(F)cc2Cl)cc1` (configuration not stated), the kinetic solubility is 5.3 µg/mL (≈ 13.4 µM).

`Cc1ccc(/C(N)=N/OC(=O)C(C)c2ccc([N+](=O)[O-])cc2)cc1` (configuration not stated) gave a solubility (kinetic) of 8.3 µg/mL (≈ 25.4 µM).

`S=C(NCCC1=CCCCC1)NCc1ccco1` registered a kinetic solubility of 38.8 µg/mL (≈ 147 µM). This solubility kinetic is about 4.7-fold higher than that of the compound before.

With `CNC(=O)c1cc(C(=O)c2ccc(Cl)cc2)c(Br)[nH]1`, the solubility (kinetic) was 1.7 µg/mL (≈ 4.98 µM).

In the case of `CN(CC(=O)NC(=O)Nc1ccccc1F)Cc1ccccc1F`, the solubility (kinetic) was 2.7 µg/mL (≈ 8.1 µM).

In the case of `CC1CC(C)(C)NC(=S)N1CCC(=O)N1c2ccccc2CC1C` (configuration not stated), the solubility (kinetic) amounted to 5.3 µg/mL (≈ 15.3 µM).

In turn, `OCCC1CN(Cc2ccon2)CCN1CCc1ccccc1` (configuration not stated) showed a kinetic solubility of 42.3 µg/mL (≈ 134 µM).

In turn, `COc1cc(SC)ccc1C(=O)Nc1cccc(C)n1` returned a kinetic solubility of 3.4 µg/mL (≈ 11.8 µM).

`O=C(NC(=O)N1CCCc2ccccc21)c1ccccc1` displayed a solubility (kinetic) of 30.2 µg/mL (≈ 108 µM).

Compound `Cc1ccc(CNC(=O)CCSCc2ccccc2C)cc1` yielded a kinetic solubility of 6.5 µg/mL (≈ 20.7 µM).

Compound `CCn1c(=O)c2ccccc2n(Cc2ccccc2C)c1=O` showed a solubility (kinetic) of 3.1 µg/mL (≈ 10.5 µM).

`COc1ccc(C(C)C)cc1S(=O)(=O)NCC1CCCO1` (configuration not stated) showed a kinetic solubility of 44.3 µg/mL (≈ 141 µM).

`O=c1[nH]c(/C=C\c2cccc(C(F)(F)F)c2)nc(O)c1[N+](=O)[O-]`: the kinetic solubility is over 49.1 µg/mL.

Take `Cc1ccc(N(C(C)C(=O)N2CCCC2)S(C)(=O)=O)cc1` (configuration not stated): the solubility (kinetic) was over 46.6 µg/mL.

`O=C(COC(=O)c1ccc([N+](=O)[O-])s1)NNC(=O)c1ccccc1` yielded a solubility (kinetic) of over 52.4 µg/mL.

In turn, `COC(=O)c1ccc(CNC(=O)c2ccc3c(c2)OCCO3)cc1` gave a solubility (kinetic) of 45.5 µg/mL (≈ 139 µM).

For the compound `CCc1ccc(/C=C2\SC(N3CCCC3)=NC2=O)cc1`, the solubility (kinetic) worked out at 12.8 µg/mL (≈ 44.7 µM). This solubility kinetic is about 3.6-fold lower than that of the compound before.

In turn, `O=C(CCC1CCCCC1)NCc1cccnc1` displayed a solubility (kinetic) of over 37 µg/mL.

The compound `O=C1CC(c2ccco2)Sc2ccccc2N1` (configuration not stated) returned a kinetic solubility of over 36.8 µg/mL.

`CC(C)c1nc(SCC(=O)NC2CCCC2)c2ccccc2n1` registered a solubility (kinetic) of 6.1 µg/mL (≈ 18.5 µM).

As to `CCc1ccccc1NC(=O)COC(=O)c1c(C)nsc1NC`, the solubility (kinetic) was found to be 1.9 µg/mL (≈ 5.7 µM).

For the compound `Cc1ccnc(NC(=O)c2cccc(S(=O)(=O)N3CCCC3)c2)c1`, the kinetic solubility came to 43.1 µg/mL (≈ 125 µM).

As for `COc1ccc(CCNc2nc(C)cc(C)c2C#N)cc1OC`, the solubility (kinetic) stood at 32.7 µg/mL (≈ 105 µM). This solubility kinetic and that of the compound before are within 1.5-fold of each other.

Consider `Cc1ccc(C(=O)NCCC(=O)N2CCCC2)cc1`, for which the solubility (kinetic) was 39 µg/mL (≈ 150 µM). The solubility kinetic values of the last two compounds are within 1.5-fold of each other.

In the case of `CC(O)c1cccc(N=Cc2ccc3ccccc3c2O)c1` (configuration not stated), the solubility (kinetic) came to 7.5 µg/mL (≈ 25.7 µM).

Take `COc1ccccc1-n1c(SCC(=O)NCc2ccc3c(c2)OCO3)nc2cc([N+](=O)[O-])ccc21`: the solubility (kinetic) came out at 3.1 µg/mL (≈ 6.29 µM).

With `CC1CCc2c(sc3ncn(CCO)c(=O)c23)C1` (configuration not stated), the kinetic solubility is over 39.7 µg/mL.

Turning to `O=S(=O)(c1ccc(Br)cc1Cl)N1CCCN(c2ccc(C(F)(F)F)cn2)CC1`, the kinetic solubility turned out to be 3 µg/mL (≈ 6.02 µM).

`Cc1ccc(S(=O)(=O)NCC(=O)OCC(=O)Nc2ccc(C)c(S(=O)(=O)N3CCOCC3)c2)cc1`: the kinetic solubility was over 78.8 µg/mL.

`CCCC(=O)NC(c1ccc(C(C)C)cc1)c1ccc2cccnc2c1O` (configuration not stated) returned a kinetic solubility of under 0.4 µg/mL.

Turning to `Cc1cnc(C(=O)OCC(=O)N=c2sccn2Cc2ccccc2Cl)cn1`, the solubility (kinetic) was determined as 55.2 µg/mL (≈ 137 µM).

Consider `COc1ccc(CNC(=S)Nc2cccc(Cl)c2)cc1`, for which the kinetic solubility came out at 3 µg/mL (≈ 9.78 µM).

With `CC(=O)Nc1ccc(C2NC(=O)CCC2[N+](=O)[O-])cc1` (configuration not stated), the solubility (kinetic) was 31.7 µg/mL (≈ 114 µM).

Compound `CC1CCN(C(=O)CCNC(=O)c2ccccc2)CC1` came in with a solubility (kinetic) of 37.1 µg/mL (≈ 135 µM).

`CCCc1cc(=O)[nH]c(SCC(=O)Nc2ccc(Br)cc2)n1` registered a kinetic solubility of 1.1 µg/mL (≈ 2.88 µM).

`CCC(NC(=O)Cc1cccs1)c1ccccc1` (configuration not stated): the solubility (kinetic) was over 38.9 µg/mL.

In turn, `O=C(CN1CCN(c2ccc(F)cc2)CC1)Nc1nccs1` registered a kinetic solubility of 24.5 µg/mL (≈ 76.5 µM).

(Values after PubChem BioAssay AID1996.)
